Several values for one entry are separate records, joined by “and”; a condition that tells them apart may be missing. Equal values may be shown once.
What was measured:
[1] = biological target: T1, TOP2B-DNA covalent complex (Homo sapiens, UniProt Q02880); assay: RADAR assay, etoposide-induced TOP2B-DNA covalent complex in HEK293F cells; assay type: cell-based; conditions: for TOP2B spot intensity: independent replicates
T1 construct: endogenous in cells; host or cells: HEK293F
Description: HEK293F cells were plated at 3 × 10^5 cells per well and grown overnight. […] Upon removal of media, cells in each well were immediately lysed with 750 µL DNAzol (Molecular Research Center, Inc.) and the DNA was precipitated by addition of 375 µL of 100% ethanol. This step was then repeated to eliminate protein aggregates. Precipitate from each sample was pelleted via centrifugation at 4 °C and max speed for 5 min. The pellets were washed twice with buffer containing 20 mM Tris pH 7.5, 1 mM EDTA pH 8.0, 50 mM NaCl, 50% EtOH, and at the end of each wash, centrifugation at 4000 × g for 2 min was repeated to isolate the DNA pellets. The pellets were washed in 75% EtOH and then collected by centrifugation at 4 °C and max speed for 5 min. The supernatant was removed via pipetting, and the remaining pellets were air dried for 5 min before 50 µL 8 mM NaOH and 0.1% Tween-20 was added to each pellet. Once no visible precipitate remained, each mixture was supplemented with 5 µL of Benzonase buffer containing 500 mM Tris pH 8.0, 10 mM MgCl2, 1/1000 Roche complete protease inhibitor cocktail (Millipore Sigma) and 40 units Benzonase (Millipore Sigma) followed by 30 to 60 min incubation at 37 °C until the pellets were fully dissolved. The DNA content from each sample was quantified on a nanodrop, and 10 µg of DNA was diluted to a final volume of 200 µL in 8 mM NaOH and 0.1% Tween. The samples were applied over the Whatman Minifold I dot blot apparatus (Cytiva) and collected on a PVDF membrane (Thermo Fisher Scientific). The membrane was washed three times with 8 mM NaOH and 0.1% Tween-20 solution prior to removal and blocking with the same wash solution containing 1 mg/mL BSA. Western blotting was carried out on an iBind (Thermo Fisher Scientific) and TOP2 proteins were detected using isoform-specific antibody against full length TOP2A (1:250 dilution; HT2A21, Inspiralis) and TOP2B (1:500 dilution; 611493, BD Biosciences) and visualized with anti-rabbit (1:1000 dilution; 926-68071, LI-COR Bio) and anti-mouse (1:1000 dilution; 926-32210, LI-COR Bio) secondary antibodies in iBind running buffer. The blots were imaged on a LI-COR Odyssey Fc and analysed using ImageStudio. Each presented data point was obtained from distinct sample.

[2] = Plasma pharmacokinetics in rabbits (LC-MS/MS); assay type: in vivo, rabbit
Description: Six rabbits were used to determine the plasma pharmacokinetics of topobexin (9). The compound was used as a dihydrochloride and was dissolved right before administration in sterile saline (10 mg of free base/ml); pH was optimized using NaOH and the solution was filtered through an antimicrobial filter (0.22 µm porosity, Carl Roth GmbH + Co. KG, Germany). The drug was administered i.v. using marginal ear vein at 10 mg/kg (counted as a free base) in a 20 min infusion. The dose, route of administration, and timing of infusion were determined based on preliminary pharmacokinetic experiments. Blood for pharmacokinetic analysis was collected from the central artery in the contralateral ear before drug administration (blank) and in preselected time intervals after drug administration (5 min to 10 h). Blood was collected in BD Vacutainer tubes (BD Biosciences, Plymouth, UK) containing lithium heparin. All samples were immediately centrifuged (5 min, 3000 × g), plasma was harvested and frozen immediately in liquid nitrogen and the samples were stored at -80 °C until analysis.
The concentration of topobexin (9) was determined in plasma samples using an analytical method developed and validated for this purpose. Briefly, rabbit plasma (50 μl) was spiked with internal standard (compound 14), precipitated with ice-cold acetonitrile (200 μl), vortexed (30 s), and centrifuged (10 min, 9520 × g, 4 °C). The resulting supernatant was filtered through a 0.45 μm porosity filter (Milex – Hv, Merck Milipore, Darmstadt, Germany) and analyzed using UHPLC-MS. Agilent 1290 Infinity II LC with Triple Quad LC/MS (6400 series), a Jet Stream Electrospray and Mass Hunter software (Agilent, Santa Clara, CA, USA) were used for the analyzes and data treatment, respectively. Chromatographic separation was achieved on the Zorbax Eclipse Plus C18 column (50 × 2.1 mm, 1.8 μm, […], Dublin, Ireland). The mobile phase composed of part A (0.0025% formic acid) and part B (acetonitrile) was mixed in the following gradient: 0–1 min (10% B), 1–3 (10–60% B), 3–3.5 min (60% B), 3.51–5 min (80% B), 5.01–6 min (10% B). The flow rate of mobile phase was 0.3 mL/min and 2 μL of the sample were injected onto the column. The linearity of the method was verified within the concentration range of 1 to 1000 nM topobexin (9) in rabbit plasma.

[3] = iv, rabbit plasma, 10 mg/kg, 20 min i.v. infusion

T1 sequence (Q02880 2-1626 limits assumed, one chain of several): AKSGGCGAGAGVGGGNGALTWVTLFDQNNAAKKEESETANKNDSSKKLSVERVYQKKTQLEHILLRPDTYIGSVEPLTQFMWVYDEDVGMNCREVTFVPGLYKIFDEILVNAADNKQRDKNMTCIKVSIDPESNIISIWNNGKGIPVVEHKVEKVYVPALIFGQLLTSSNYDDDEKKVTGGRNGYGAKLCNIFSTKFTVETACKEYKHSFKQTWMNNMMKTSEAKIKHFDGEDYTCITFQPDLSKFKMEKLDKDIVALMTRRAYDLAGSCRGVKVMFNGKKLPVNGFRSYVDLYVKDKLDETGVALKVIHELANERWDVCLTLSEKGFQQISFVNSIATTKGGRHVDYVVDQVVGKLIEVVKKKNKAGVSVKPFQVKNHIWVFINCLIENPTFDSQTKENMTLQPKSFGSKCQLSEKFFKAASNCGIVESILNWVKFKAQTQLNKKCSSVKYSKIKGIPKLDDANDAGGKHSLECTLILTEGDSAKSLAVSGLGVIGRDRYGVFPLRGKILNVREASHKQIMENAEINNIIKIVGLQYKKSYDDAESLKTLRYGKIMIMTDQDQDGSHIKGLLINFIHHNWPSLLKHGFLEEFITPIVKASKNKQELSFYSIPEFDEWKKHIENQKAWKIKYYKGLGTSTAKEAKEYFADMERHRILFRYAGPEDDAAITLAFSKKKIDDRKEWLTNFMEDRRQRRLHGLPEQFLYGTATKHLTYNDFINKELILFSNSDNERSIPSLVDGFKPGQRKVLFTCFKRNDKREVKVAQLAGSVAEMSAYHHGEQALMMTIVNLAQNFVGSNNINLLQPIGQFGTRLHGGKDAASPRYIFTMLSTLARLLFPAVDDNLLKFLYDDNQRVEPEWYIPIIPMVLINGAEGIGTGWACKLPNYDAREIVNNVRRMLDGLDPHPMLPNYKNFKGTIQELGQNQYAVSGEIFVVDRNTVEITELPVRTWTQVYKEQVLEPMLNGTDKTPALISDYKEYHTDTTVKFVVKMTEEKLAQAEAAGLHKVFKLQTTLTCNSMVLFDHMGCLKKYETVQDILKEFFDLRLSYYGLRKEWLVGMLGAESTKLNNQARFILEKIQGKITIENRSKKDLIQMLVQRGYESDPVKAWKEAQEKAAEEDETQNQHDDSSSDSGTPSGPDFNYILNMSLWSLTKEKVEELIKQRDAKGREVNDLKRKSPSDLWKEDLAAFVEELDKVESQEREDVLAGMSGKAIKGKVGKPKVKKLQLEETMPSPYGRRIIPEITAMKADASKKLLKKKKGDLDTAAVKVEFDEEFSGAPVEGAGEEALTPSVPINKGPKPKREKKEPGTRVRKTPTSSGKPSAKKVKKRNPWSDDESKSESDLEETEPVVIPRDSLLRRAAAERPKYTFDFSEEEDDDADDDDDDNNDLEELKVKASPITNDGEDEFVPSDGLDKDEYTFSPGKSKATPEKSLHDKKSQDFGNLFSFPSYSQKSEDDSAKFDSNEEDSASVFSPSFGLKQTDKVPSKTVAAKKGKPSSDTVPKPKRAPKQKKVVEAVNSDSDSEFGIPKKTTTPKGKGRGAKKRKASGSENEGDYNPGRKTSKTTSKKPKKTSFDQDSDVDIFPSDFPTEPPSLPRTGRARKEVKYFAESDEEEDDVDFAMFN

CCCc1cc(=O)oc2c(C(=O)N3CCCc4ccccc43)c(OCCN3CCN(C)CC3)ccc12 [topobexin (9)]
TOP2B spot intensity ([1]; Cmpd 9 0.1 μM + etoposide 5 μM): 104.7 and 108 and 35.48 and 44.18 and 86.39
TOP2B spot intensity ([1]; Cmpd 9 1 μM + etoposide 5 μM): 30.03 and 46.96 and 8.418 and 33.86 and 32.47
TOP2B spot intensity ([1]; Cmpd 9 10 μM + etoposide 5 μM): 9.497 and 0.7143 and 3.351 and 13.57 and 7.34
TOP2B spot intensity ([1]; Cmpd 9 10 μM, etoposide 0, background subtracted): 0.7839 and 1.705 and 2.435 and 8.291 and 6.459
concentration significantly reducing TOP2B-DNA CC ([1]; etoposide-induced, HEK293F): 1 µM
Plasma concentration ([2]; 10 min, individual subjects): 9.134 µM and 17.429 µM and 15.678 µM and 15.114 µM and 12.648 µM
Plasma concentration ([2]; 20 min, individual subjects): 11.689 µM and 11.373 µM and 12.322 µM and 16.573 µM and 12.398 µM
Plasma concentration ([2]; 40 min, individual subjects): 4.374 µM and 4.139 µM and 3.247 µM and 3.779 µM and 3.693 µM
Plasma concentration ([2]; 60 min, individual subjects): 1.755 µM and 3.643 µM and 3.122 µM and 2.610 µM and 3.293 µM and 2.847 µM
Plasma concentration ([2]; 120 min, individual subjects): 1.524 µM and 1.569 µM and 1.234 µM and 1.184 µM and 1.188 µM
Plasma concentration ([2]; 240 min, individual subjects): 0.456 µM and 0.440 µM and 0.629 µM and 0.503 µM and 0.425 µM
Plasma concentration ([2]; 360 min, individual subjects): 0.161 µM and 0.144 µM and 0.140 µM and 0.225 µM and 0.134 µM
Plasma concentration ([2]; 480 min, individual subjects): 0.110 µM and 0.051 µM and 0.053 µM and 0.103 µM and 0.049 µM
Plasma concentration ([2]; 600 min, individual subjects): 0.019 μM (2×) and 0.026 μM (2×) and 0.018 μM
Cmax [2, 3]: 13.5 ± 3.2 µM
Tmax [2, 3]: 10 min
concentrations present in rabbits during daunorubicin administration ([2]; plasma): ≤ 3 µM
Plasma concentration ([2]; rabbit, 10 mg/kg 20 min i.v. infusion, 5 min, individual subjects, 10 mg/kg): 7.668 µM and 14.456 µM and 10.833 µM and 11.650 µM and 11.714 µM
time with plasma concentration ≥ 1 μM ([2]; rabbit, 10 mg/kg, 20 min i.v. infusion): 2.5 h
concentration at 10 min ([2]; rabbit, plasma, intravenous, 10 mg/kg, 10 min, individual subjects): 10.8 µM
concentration at 20 min ([2]; rabbit, plasma, intravenous, 10 mg/kg, 20 min, individual subjects): 10.5 µM
concentration at 40 min ([2]; rabbit, plasma, intravenous, 10 mg/kg, 40 min, individual subjects): 3.47 µM
concentration at 120 min ([2]; rabbit, plasma, intravenous, 10 mg/kg, 120 min, individual subjects): 1.32 µM
concentration at 240 min ([2]; rabbit, plasma, intravenous, 10 mg/kg, 240 min, individual subjects): 0.429 µM
concentration at 360 min ([2]; rabbit, plasma, intravenous, 10 mg/kg, 360 min, individual subjects): 0.155 µM
concentration at 600 min ([2]; rabbit, plasma, intravenous, 10 mg/kg, 600 min, individual subjects): 0.025 µM
concentration at 5 min ([2]; rabbit, plasma, iv, 10 mg/kg, 10 mg/kg 20 min i.v. infusion, 5 min, individual subjects): 11.1 µM

Source: paper PMC12116762, “Topobexin targets the Topoisomerase II ATPase domain for beta isoform-selective inhibition and anthracycline cardioprotection” (Nature Communications, 2025)
